Data published in article PMC8807614 (Scientific Reports, 2022).
“Also recorded” adds a separate entry of the source. Peptide text beside a SMILES is read from it.

Key:
human NPFF2R = human NPFF2R (Homo sapiens, UniProt Q9Y5X5); assay: NPFF2R functional activity assay (cAMP, HTRF); type: cell-based; conditions: CHO-K1 cells stably expressing human NPFF2R, 1500 cells/well; HTRF cAMP (CisBio); 3 µM forskolin (~90% activity level); 30 min; DPBS, 0.5 mM IBMX, 0.05% casein; 11 concentrations
Protocol: Figure 3 GPR10 and NPFF2R profiling of in vivo metabolites of GUB03385. […] (b) cAMP measurements in human NPFF2R CHO-K cells (HTRF technology, CisBio) at a fixed concentration of 3 µM forskolin after 30 min. incubation at room temperature with metabolites and the native peptide NPSF. Representative curves of three determinations.
The Homogenous Time Resolved Fluorescence (HTRF) technology optimized for Gq coupled receptors has thoroughly been described in the CisBio IP1 kit manual (#62IPAPEC) and in the cAMP assay kit manual for Gi coupled receptors (#62AM9PEC). Briefly, this technic is based on a competitive immunoassay using cryptate-labelled anti-cAMP or anti-IP1 antibodies and d2-labeled cAMP or IP1. In the absence of cellular cAMP or IP1, the anti-cryptate conjugate may get into proximity to the d2 conjugate and energy (FRET) can be transferred from cryptate to d2. Chem-1 cells stably expressing the human prolactin releasing peptide receptor (GPR10, Eurofins, # HTS057C) and irradiated CHO-K1 cells stably expressing the human NPFF2R (PerkinElmer, #ES-490-CF) were applied as cells in suspension, brought to life from frozen cell stocks immediately before assay performance. 384-Well (Corning, #4513) assay formats with a total assay volume of 20 µl were applied. GPR10 cells (10.000 cells/well) were incubated with agonist peptides and the NPFF2R cells (1500 cells/well) were incubated with agonist peptides and forskolin (~ 90% activity level) for 30 min at 37 °C using IP1 kit stimulation buffer and DPBS (Sigma, #D8537) containing 0.5 mM IBMX (Sigma, # I5879), receptively. Both stimulation buffers were supplemented with 0.05% casein (Sigma, # C4765-10 ml). After addition of HTRF® detection reagents and incubation with shaking (2400 rpm) for one hour at room temperature signals at 620 and 665 nm (raw counts: ratio of 665/620) were detected at a ClarioStar plate reader (BMG Labtech, Ortenberg, Germany). Concentration–response evaluation of compounds was performed with 11 concentrations of agonist peptides (covering 3 decades) and EC50 values were calculated by nonlinear regression using sigmoid concentration–response with variable slope. Data were analysed using GraphPad v9.1 software (GraphPad, La Jolla, CA).

[1] = target: T1, human prolactin releasing peptide receptor (GPR10) (Homo sapiens, UniProt P49683); assay: GPR10 functional activity assay (IP1, HTRF); type: cell-based; conditions: Chem-1 cells stably expressing human GPR10, 10.000 cells/well; HTRF IP1 (CisBio); 30 min at 37 °C; IP1 stimulation buffer with 0.05% casein; 11 concentrations
T1 sequence (P49683 1-370): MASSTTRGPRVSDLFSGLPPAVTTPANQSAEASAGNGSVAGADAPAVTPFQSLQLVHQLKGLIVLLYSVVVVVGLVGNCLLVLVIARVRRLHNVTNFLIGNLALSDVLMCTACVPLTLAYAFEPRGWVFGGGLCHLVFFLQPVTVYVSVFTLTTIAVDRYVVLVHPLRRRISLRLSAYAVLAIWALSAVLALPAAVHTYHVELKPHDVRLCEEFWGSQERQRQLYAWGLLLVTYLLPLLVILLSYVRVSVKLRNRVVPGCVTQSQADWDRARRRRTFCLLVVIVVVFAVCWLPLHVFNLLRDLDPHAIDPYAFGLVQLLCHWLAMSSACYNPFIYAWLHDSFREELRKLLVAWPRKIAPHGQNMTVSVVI

DIO mice = assay: In vivo efficacy of lipidated PrRP31 analogues in DIO mice (body weight, food intake); parameters: species or system male C57BL/6 J mice
Protocol: For all in vivo studies, male C57BL/6 J mice (5 weeks old, n = 7–8) were purchased from Janvier Labs (Le Genest Saint Isle, France). Individual animals were identified by implantable subcutaneous microchips (PetID Microchip, E-vet, Haderslev, Denmark). Mice were housed in a controlled environment (12 h light/dark cycle, lights on at 3 AM, 21 ± 2 °C, humidity 50 ± 10%) and had ad libitum access to tap water and regular chow (Altromin 1324, Brogaarden, Hørsholm, Denmark) or high-fat diet (60% fat, D12492 Research diet) for up to 47 weeks prior to the initiation of the study. All animal experiments were conducted in accordance to internationally accepted principles for the care and use of laboratory animals. All experiments were approved by The Animal Experimentation Council, Danish Veterinary and Food Administration (license #2013-15-2934-00784) and the Gubra ethics committee. All experiments complied with the ARRIVE guidelines.
Compounds were freshly prepared in vehicle (PBS with 0.1% BSA, pH 4) just prior to dosing. Semaglutide was purchased from Hoersholm Pharmacy (Hoersholm, Denmark). All animals were single housed two weeks prior to treatment and throughout the remaining of the study period. Mice were randomized to treatment according to body weight (n = 7–8 per group) and dosed subcutaneously (SC, 5 ml/kg) for a total of 7 days with vehicle (BID), semaglutide (10 nmol/kg, QD) or peptide analogues (1,250 nmol/kg, BID). All compounds were administered during the light phase. Body weight and food intake (24 h) were measured daily during the treatment period and one week after treatment. In vivo data were subjected to relevant statistical analyses using GraphPad v9.1 software (GraphPad, La Jolla, CA). Statistical evaluation was carried out using Dunnett’s test one-factor linear model (endpoint body weight, food intake, cumulative food intake). A p-value less than 0.05 was considered statistically significant.

[2] = Plasma peptide concentrations 4 h after last dosing in DIO mice; type: in vivo, male C57BL/6 J mice; conditions: treatment day 6, 1,250 nmol/kg SC BID
Protocol: (a) Body weight. (b) 24 h food intake. (c) total food intake during treatment phase. (d) total food intake during wash-out phase. (e) Plasma peptide concentrations as measured 4 h after last dosing (treatment day 6). Peptides were administered (SC, BID) at a dose of 1250 nmol/kg (n = 7–8 per group). **p < 0.01, ***p < 0.001 compared to vehicle.
Figure 4 Lipidated metabolites of GUB03385 robustly reduce body weight and food intake in DIO mice. Effect of subchronic treatment (days 0–6) with GUB08248, GUB08251, GUB10194 and GUB10195 followed by 7-day wash-out period (days 7–13, marked in grey). In vivo efficacy was compared to semaglutide (10 nmol/kg, SC, QD, n = 8). (a) Body weight. (b) 24 h food intake. (c) Total food intake during treatment phase. (d) Total food intake during wash-out phase. (e) Plasma peptide concentrations as measured 4 h after last dosing (treatment day 6).
Compounds were freshly prepared in vehicle (PBS with 0.1% BSA, pH 4) just prior to dosing. Semaglutide was purchased from Hoersholm Pharmacy (Hoersholm, Denmark). All animals were single housed two weeks prior to treatment and throughout the remaining of the study period. […] Body weight and food intake (24 h) were measured daily during the treatment period and one week after treatment. […]

[3] = plasma of DIO mice 4 h after last dosing on treatment day 6 (SC, BID); conditions: DIO mice (male C57BL/6 J), up to 4 h after last dosing on treatment day 6
[4] = plasma from cardiac blood samples of DIO mice dosed with GUB03385 (SC); conditions: DIO mice (male C57BL/6 J), up to 120 min

Sequence of human NPFF2R (Q9Y5X5 whole entry): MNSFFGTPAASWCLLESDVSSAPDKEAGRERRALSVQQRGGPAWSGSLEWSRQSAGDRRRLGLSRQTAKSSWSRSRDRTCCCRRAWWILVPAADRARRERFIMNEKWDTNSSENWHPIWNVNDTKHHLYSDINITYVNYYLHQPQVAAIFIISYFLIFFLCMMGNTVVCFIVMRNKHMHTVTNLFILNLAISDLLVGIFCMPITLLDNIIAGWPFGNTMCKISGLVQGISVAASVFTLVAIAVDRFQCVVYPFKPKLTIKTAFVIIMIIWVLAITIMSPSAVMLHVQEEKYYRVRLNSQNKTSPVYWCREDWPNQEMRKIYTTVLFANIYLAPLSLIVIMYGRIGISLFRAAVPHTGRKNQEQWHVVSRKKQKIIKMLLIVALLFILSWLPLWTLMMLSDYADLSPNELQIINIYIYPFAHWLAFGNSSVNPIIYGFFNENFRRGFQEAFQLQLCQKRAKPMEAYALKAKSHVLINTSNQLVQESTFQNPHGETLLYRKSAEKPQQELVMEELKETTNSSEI

CCCCCCCCCCCCCCCC(=O)N[C@@H](CCC(=O)NCCCC[C@H](NC(=O)[C@@H](NC(=O)[C@H](CCC(=O)O)NC(=O)[C@H](CCSC)NC(=O)[C@H](CO)NC(=O)[C@H](Cc1c[nH]cn1)NC(=O)[C@H](CCCNC(=N)N)NC(=O)[C@H](Cc1c[nH]cn1)NC(=O)[C@@H](NC(=O)[C@H](CCCNC(=N)N)NC(=O)[C@@H](N)CO)[C@@H](C)O)[C@@H](C)CC)C(=O)N[C@H](C(=O)N1CCC[C@H]1C(=O)N[C@@H](CC(=O)O)C(=O)N[C@H](C(=O)N[C@@H](CC(N)=O)C(=O)N1CCC[C@H]1C(=O)N[C@@H](C)C(=O)N[C@@H](Cc1c[nH]c2ccccc12)C(=O)N[C@@H](Cc1ccc(O)cc1)C(=O)N[C@@H](C)C(=O)N[C@@H](CO)C(=O)N[C@@H](CCCNC(=N)N)C(=O)NCC(=O)N[C@H](C(=O)N[C@@H](CCCNC(=N)N)C(=O)N1CCC[C@H]1C(=O)N[C@H](C(=O)NCC(=O)N[C@@H](CCCNC(=N)N)C(=O)N[C@@H](Cc1ccccc1)C(N)=O)C(C)C)[C@@H](C)CC)[C@@H](C)CC)[C@@H](C)O)C(=O)O [GUB02647] (HELM PEPTIDE1{S.R.T.H.R.H.S.M.E.I.K.T.P.D.I.N.P.A.W.Y.A.S.R.G.I.R.P.V.G.R.F.[am]}|PEPTIDE2{[CCCCCCCCCCCCCCCC(=O)[*:2]].[gGlu]}$PEPTIDE1,PEPTIDE2,11:R3-2:R2$$$V2.0)
EC50 (human NPFF2R): 147 nM
EC50 [1]: 0.3 nM
effect on food intake (DIO mice; 1,250 nmol/kg SC BID days 0-6, wash-out days 7-13, 24 h food intake measured daily): significantly suppressed food intake during the treatment period, but not in the wash-out phase
body weight loss, day 7 (DIO mice; 1,250 nmol/kg SC BID for 7 days (days 0-6), after last dosing, n = 7-8 per group): 11.8 ± 1.0%
body weight loss, day 13 (DIO mice; 1,250 nmol/kg SC BID for 7 days, then 7-day wash-out, n = 7-8 per group): 8.1 ± 1.0%
weight loss (as summarised in discussion) (DIO mice; subchronic SC treatment with 1,250 nmol/kg BID, time point not stated): 8%
plasma exposure 4 h after last dosing [2]: not detected in plasma; also recorded: undetectable in plasma

SRGK*RPVGRF (K* lipid chain: C18DA γE OEG OEG)
fragment found [3]: GUB10195

SRGK*RPVGRF (K* lipid chain: C18 γE OEG OEG)
fragment found [3]: GUB08251

SRTHRHSMEIRTPDINPAWYASRGK*RPVGRF (K* lipid chain: C18 γE OEG OEG; C-terminally amidated)
fragment found [4]: GUB08247: ASRGK*RPVG (C18 γE OEG OEG), major, 30 min; also recorded: GUB08248: SRGK*RPVGRF (C18 γE OEG OEG), major, 30 min; also recorded: GUB08249: SRGK*RPVG (C18 γE OEG OEG), major, 30 min; also recorded: GUB08250: SRGK*RPV (C18 γE OEG OEG), major, 30 min; also recorded: GUB08251: GK*RPVGRF (C18 γE OEG OEG), major, 60 min; also recorded: GUB08252: K*RPVGR (C18 γE OEG OEG), major, 60 min; also recorded: GUB08253: K*RPVG (C18 γE OEG OEG), major, 60 min; also recorded: GUB08254: K*RPV (C18 γE OEG OEG), major, 60 min
